Measured values published in BindingDB's records for doi:10.1124/jpet.104.081497 (Katholieke Universiteit Leuven, 2005).

What follows are compounds tested against T1, Promotilin (Homo sapiens, UniProt P12872).
T1 sequence (P12872 whole entry): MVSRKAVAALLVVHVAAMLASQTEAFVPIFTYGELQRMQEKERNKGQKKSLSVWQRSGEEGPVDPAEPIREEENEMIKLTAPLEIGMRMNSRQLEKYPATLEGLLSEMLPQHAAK
`C#CCN(C)C1CC(C)OC(OC2C(C)C(OC3CC(C)(OC)C(O)C(C)O3)C(C)C(=O)OC(CC)C(C)(O)C(O)C(C)C(=O)C(C)CC2(C)O)C1O` (stereo unspecified) [ME36] was tested, and the Ki was > 10000 nM. Compound `CC[C@H]1OC(=O)[C@H](C)[C@@H](O[C@H]2C[C@@](C)(OC)[C@@H](O)[C@H](C)O2)[C@H](C)[C@@H](O[C@@H]2O[C@H](C)C[C@H](N(C)C)[C@H]2O)[C@@]2(C)CC(C)=C(O2)[C@H](C)[C@@H](O)[C@]1(C)O` [Erythromycin-A enol ether] has a Ki of 257 nM. Compound `CC[C@H](C)[C@H](NC(=O)[C@@H]1CCCN1C(=O)[C@@H](NC(=O)[C@@H](N)Cc1ccccc1)C(C)C)C(=O)N[C@@H](Cc1ccccc1)C(=O)N[C@H](C(=O)N[C@@H](Cc1ccc(O)cc1)C(=O)NCC(=O)N[C@@H](CCC(=O)O)C(=O)N[C@@H](CC(C)C)C(=O)N[C@@H](CCC(N)=O)C(=O)N[C@@H](CCCNC(=N)N)C(=O)N[C@@H](CCSC)C(=O)N[C@@H](CCC(N)=O)C(=O)N[C@@H](CCC(=O)O)C(=O)N[C@@H](CCCCN)C(=O)N[C@@H](CCC(=O)O)C(=O)N[C@@H](CCCNC(=N)N)C(=O)N[C@@H](CC(N)=O)C(=O)N[C@@H](CCCCN)C(=O)NCC(=O)N[C@@H](CCC(N)=O)C(=O)O)[C@@H](C)O` [CAS_52906-92-0] has a Ki of 2.82 nM. `CC[C@H]1OC(=O)[C@H](C)[C@@H](O[C@H]2C[C@@](C)(OC)[C@@H](O)[C@H](C)O2)[C@H](C)[C@@H](O[C@@H]2O[C@H](C)C[C@H](N(C)C)[C@H]2O)[C@]2(C)CC(C)=C(O2)[C@H](C)[C@@H](O)[C@@H]1C` [EM-B enolether] was tested, and the Ki was 324 nM. In the case of `CC[C@H]1OC(=O)[C@H](C)[C@@H](O[C@H]2C[C@@](C)(OC)C[C@H](C)O2)[C@H](C)[C@@H](O[C@@H]2O[C@H](C)C[C@H](N(C)CC)[C@H]2O)[C@@]2(C)CC(C)=C(O2)[C@H](C)[C@@H](O)[C@H]1C` [ABT-229], the Ki is reported as 58.9 nM. `CC[C@H]1OC(=O)[C@H](C)[C@@H](O[C@H]2C[C@@](C)(OC)[C@@H](O)[C@H](C)O2)[C@H](C)[C@@H](O[C@@H]2O[C@H](C)C[C@H](N(C)C)[C@H]2O)[C@](C)(O)C[C@@H](C)C(=O)[C@H](C)[C@@H](O)[C@]1(C)O` [CAS_114-07-8] was tested, and the Ki was 3090 nM.
